According to patent US20080142759A1, “Pyridine N-Oxide Based Azo Dyes And Their Metal Complexes For Use In Optical Layers For Optical Data Recording” (priority 2004, published 2008):

Assay: Thermal decomposition by DSC
Format: physicochemical
Text: Sharp threshold of thermal decomposition within the required temperature range characterizes the new pyridine N-oxide based azo dyes which are assumed to be desirable for the application in optical layers for optical data recording.

DSC: dec. at (DSC): 260 °C | Dec.Pt (Table 1 summary): 260 °C
Compound: CCN1C(O)=C(/N=N/c2c(O)ccc[n+]2[O-])C=CC1=C(C#N)C#N [(12)]
